Laboratory results published in patent publication US20250179047A1, “5-[7-(3,4-DIHYDRO-1H-ISOQUINOLINE-2-CARBONYL)-1,2,3,4 TETRAHYDROISOQUINOLIN-6-YL]-1H-PYRROLE-3-CARBOXAMIDE DERIVATIVES, PHARMACEUTICAL COMPOSITIONS CONTAINING THEM AND THEIR USES AS PRO-APOPTOTIC AGENTS” (LES LABORATOIRES SERVIER, priority 2022, published 2025).

What was measured:
[1] = test system: KMS-12-PE Bcl-2 WT; assay: In vitro cytotoxicity CellTiter-Glo 48 h, KMS-12-PE Bcl-2 WT; type: cell-based; conditions: Homo sapiens, KMS-12-PE, C50 = concentration needed to reach 50% of the cellular viability
How it was run: (§1)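 Potency is expressed as C50, the compound concentration at which viability of engineered KMS-12-PE cells (Bcl-2 wild type or G101V) falls to 50%, determined from CellTiter-Glo luminescence after 48 h of treatment over 11 concentrations.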

[2] = molecular target: BCL2 D103Y (Homo sapiens, UniProt P10415, D103Y); assay: TR-FRET competitive binding assay, BCL2 D103Y; conditions: Ki determined from IC50, read-out: TR_FRET EKI_Bcl2 D103Y
How it was run: (§2)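 Terbium-labelled N-terminal Halo-fusion BCL2 or BCLXL (E. coli), 0.5 nM, competed against fluorescein-labelled PUMA peptide (2 or 20 nM) for 2 h at 23° C in 50 mM Hepes pH 7.5, 150 mM NaCl, 5% DMSO. TR-FRET 520/495 nm ratio gave IC50 by four-parameter fit; Ki derived from IC50.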

[3] = molecular target: BCL2 F104I (Homo sapiens, UniProt P10415, F104I); assay: TR-FRET competitive binding assay, BCL2 F104I; conditions: Ki determined from IC50, read-out: TR_FRET EKI_Bcl2 F104I
How it was run: as §2

[4] = molecular target: BCLXL WT (Homo sapiens (Human), UniProt Q07817); assay: TR-FRET competitive binding assay, BCLXL WT; conditions: for Ki: BCLXL WT, Ki determined from IC50, read-out: TR_FRET EKI BclxL; for TR_FRET EKI BCLxL/WT selectivty ratio: ratio Ki BCLxL / Ki BCL2 WT
Chain of BCLXL WT (Q07817 other isoform, or with tags, fused parts or gaps): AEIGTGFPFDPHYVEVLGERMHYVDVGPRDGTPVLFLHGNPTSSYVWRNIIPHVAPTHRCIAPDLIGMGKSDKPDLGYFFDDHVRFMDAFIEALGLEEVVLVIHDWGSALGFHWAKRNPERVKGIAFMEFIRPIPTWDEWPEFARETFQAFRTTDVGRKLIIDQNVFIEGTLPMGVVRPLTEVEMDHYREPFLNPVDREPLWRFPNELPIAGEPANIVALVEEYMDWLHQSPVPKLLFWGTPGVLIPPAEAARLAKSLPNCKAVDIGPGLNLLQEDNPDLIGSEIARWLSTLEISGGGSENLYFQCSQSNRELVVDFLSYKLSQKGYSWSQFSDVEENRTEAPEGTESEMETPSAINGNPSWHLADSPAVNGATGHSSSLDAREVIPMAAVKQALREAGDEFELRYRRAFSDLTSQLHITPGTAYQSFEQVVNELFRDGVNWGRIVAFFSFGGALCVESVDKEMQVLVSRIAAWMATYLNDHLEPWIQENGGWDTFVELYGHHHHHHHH
How it was run: as §2

[5] = molecular target: BCL2 D111A (Homo sapiens, UniProt P10415, D111A); assay: TR-FRET competitive binding assay, BCL2 D111A; conditions: Ki determined from IC50, read-out: TR_FRET EKI_Bcl2 D111A
How it was run: as §2

[6] = test system: KMS-12-PE Bcl-2 G101V; assay: In vitro cytotoxicity CellTiter-Glo 48 h, KMS-12-PE Bcl-2 G101V; type: cell-based; conditions: for Ratio (G101V/WT): C50 KMS-12-PE Bcl-2 G101V over C50 KMS-12-PE Bcl-2 WT; for IC50: Homo sapiens, KMS-12-PE, 48 h, CellTiter-Glo, C50 = concentration needed to reach 50% of the cellular viability
How it was run: as §1

[7] = test system: BCL2 G101V; assay: TR-FRET competitive binding assay, BCL2 G101V; set-up: species or system human; conditions: ratio Ki BCL2 G101V / Ki BCL2 WT
How it was run: as §2

[8] = molecular target: BCL2 G101V (Homo sapiens, UniProt P10415, G101V); assay: TR-FRET competitive binding assay, BCL2 G101V; conditions: BCL2 G101V; Ki determined from IC50; read-out: TR_FRET EKI_Bcl2 G101V
How it was run: as §2

[9] = molecular target: BCL2 WT (Homo sapiens (Human), UniProt P10415); assay: TR-FRET competitive binding assay, BCL2 WT; conditions: Ki determined from IC50, read-out: TR_FRET EKI_Bcl2 WT
How it was run: as §2

Structure (SMILES)	IC50 [1]	Ki [2]	Ki [3]	Ki [4]	TR_FRET EKI BCLxL/WT selectivty ratio [4]	Ki [5]	Ratio (G101V/WT) [6]	IC50 [6]	TR_FRET EKI G101V/WT selectivty ratio [7]	Ki [8]	Ki [9]
Cc1c(C(=O)N(c2ccc(O)cc2)c2cc(C#N)n(C3CC3)c2C)cc(-c2cc3c(cc2C(=O)N2Cc4ccccc4C[C@H]2C)CN(C(=O)Cc2ccc(OCCN4CCOCC4)cc2)CC3)n1C [Example 71, N-(5-cyano-1-cyclopropyl-2-methyl-pyrrol-3-yl)-N-(4-hydroxyphenyl)-1,2-dimethyl-5-[7-[(3R)-3-methyl-3,4-dihydro-1H-isoquinoline-2-carbonyl]-2-[2-[4-(2-morpholinoethoxy)phenyl]acetyl]-3,4-dihydro-1H-isoquinolin-6-yl]pyrrole-3-carboxamide]	0.0092 µM	0.68 nM	1.02 nM	1.6 nM	10.7	0.31 nM	3.88	0.0356 µM	8.0	1.2 nM	0.15 nM
COc1ncc(N(C(=O)c2cc(-c3cc4c(cc3C(=O)N3Cc5ccccc5C[C@H]3C)CN(C(=O)Cc3ccc(OCCN5CCOCC5)cc3)CC4)n(C)c2C)c2ccc(O)cc2)cc1F [Example 72, N-(5-fluoro-6-methoxypyridin-3-yl)-N-(4-hydroxyphenyl)-1,2-dimethyl-5-(7-{[(3R)-3-methyl-3,4-dihydro-1H-isoquinolin-2-yl]carbonyl}-2-(2-{4-[2-(morpholin-4-yl)ethoxy]phenyl}acetyl)-3,4-dihydro-1H-isoquinolin-6-yl)pyrrole-3-carboxamide]	0.0066 µM	0.37 nM	1.17 nM	3.7 nM	26.4	0.21 nM	6.42	0.0427 µM	6.1	0.9 nM	0.14 nM
Cc1c(N(C(=O)c2cc(-c3cc4c(cc3C(=O)N3Cc5ccccc5C[C@H]3CCN3CCCCC3)CN(C(=O)Cc3ccc(OCCN5CCOCC5)cc3F)CC4)n(C)c2C)c2ccc(O)cc2)cc(C#N)n1C [Example 74, N-(5-cyano-1,2-dimethyl-1H-pyrrol-3-yl)-5-[2-(2-{2-fluoro-4-[2-(morpholin-4-yl)ethoxy]phenyl}acetyl)-7-[(3S)-3-[2-(piperidin-1-yl)ethyl]-1,2,3,4-tetrahydroisoquinoline-2-carbonyl]-1,2,3,4-tetrahydroisoquinolin-6-yl]-N-(4-hydroxyphenyl)-1,2-dimethyl-1H-pyrrole-3-carboxamide]	0.0375 µM	0.07 nM	0.04 nM	1.1 nM	52.4	0.09 nM	2.36	0.0885 µM	2.8	0.1 nM	0.02 nM
COc1ccc(N(C(=O)c2cc(-c3cc4c(cc3C(=O)N3Cc5ccccc5C[C@H]3C)CN(C(=O)Cc3ccc(OCCN5CCOCC5)cc3)CC4)n(C)c2C)c2ccc(O)cc2)cc1C#N [Example 81, N-(3-cyano-4-methoxyphenyl)-N-(4-hydroxyphenyl)-1,2-dimethyl-5-(7-{[(3R)-3-methyl-3,4-dihydro-1H-isoquinolin-2-yl]carbonyl}-2-(2-{4-[2-(morpholin-4-yl)ethoxy]phenyl}acetyl)-3,4-dihydro-1H-isoquinolin-6-yl)pyrrole-3-carboxamide]	0.007 µM	0.46 nM	0.52 nM	5.3 nM	27.9	0.4 nM	5.6429	0.0395 µM	2.9	0.6 nM	0.19 nM
